We go through one substance from paper PMC7648750, “In vitro and in vivo BNCT investigations using a carborane containing sulfonamide targeting CAIX epitopes on malignant pleural mesothelioma and breast cancer cells” (Scientific Reports, 2020).

In the assay the test system is AB22 cells. The experiment in a line: MTT cell vitality assay. In kind it is cell-based, mouse. As to conditions: normoxia. On the procedure: The MTT assay is based on the reduction in the mitochondria of metabolically active cells by succinate dehydrogenase obtaining a precipitation of purple formazan crystal. The assay was carried out using the same protocol reported by Azzi et al[42]. Briefly, AB22, ZL34 and MCF7 cells were seeded at a density of 7 × 10^3, 5 × 10^3 and 1 × 10^4 cells per well, respectively, in a 96-well microtiter plate. After 24 h at 37 °C and 5% CO2, they were incubated with increasing concentration of CA-SF or AZ for 24 h in a condition of normoxia at 37 °C and 5% CO2 by adding stock solutions in dimethyl sulfoxide (DMSO). In all the conditions the concentration of DMSO during the cell incubation was maintained under 0.25% (v/v) in cell medium. After the incubation, the medium was removed and each well was incubated with thiazolyl blue tetrazolium bromide (Sigma) dissolved in the medium at a concentration of 0.45 mg/mL for 4 h at 37 °C and 5% CO2. Then, after medium elimination, 150 µL of DMSO were added into each well to solubilise the formazan salt crystals produced by the metabolism of live cells and the microplate was incubated at room temperature (RT) for 30 min. Finally, absorbance was measured at 570 nm using an iMark microplate reader (Biorad). Cell vitality was reported as the percentage of […] cells observed in the treated samples relative to that observed in the non-treated control cells.
A general note: Tetrazolium assays rely on reduction of a dye to a coloured formazan, in cell work by metabolically active cells.

As for 1-Sulfonamidomethyl-o-carborane [CA-SF], for the setting “AB22, 130 µM CA-SF, 24 h, 37 °C”, the “cell vitality measured by MTT” value was “about 80%”. Further, where the note is “AB22, 24 h, Fig. 3”, the “percentage of viable cells with increasing concentration (MTT)” value was “steadily decreases”.
